Data as given in ChEMBL document CHEMBL5325456, “5-(4-Hydroxyphenyl)-3H-1,2-dithiole-3-thione derivatives of brefeldin A: Design, synthesis and cytotoxicity in MDA-MB-231 human breast cancer cells” (Bioorg Med Chem, 2023).

Legend:
[1] = tested on: DU-145; test: Antiproliferative activity against human DU-145 cells assessed as reduction in cell viability incubated for 48 hrs by CCk-8 assay; type: functional, cell-based; settings: DU-145, 48 h
[2] = tested on: A-375; test: Antiproliferative activity against human A-375 cells assessed as reduction in cell viability incubated for 48 hrs by CCk-8 assay; type: functional, cell-based; settings: A-375, 48 h
[3] = tested on: A549; test: Antiproliferative activity against human A549 cells assessed as reduction in cell viability incubated for 48 hrs by CCk-8 assay; type: functional, cell-based; settings: A549, 48 h
[4] = tested on: MDA-MB-231; test: Antiproliferative activity against human MDA-MB-231 cells assessed as reduction in cell viability incubated for 48 hrs by CCk-8 assay; type: functional, cell-based; settings: MDA-MB-231, 48 h
[5] = Antiproliferative activity against human L02 cells assessed as reduction in cell viability incubated for 48 hrs by CCk-8 assay; type: toxicity, cell-based
[6] = Selectivity index, ratio of IC50 for antiproliferative activity against human L02 cells to IC50 for antiproliferative activity against human MDA-MB-231 cells; type: toxicity, cell-based; settings: L02 cells and MDA-MB-231 cells, read-out: Ratio IC50
[7] = tested on: HeLa; test: Antiproliferative activity against human HeLa cells assessed as reduction in cell viability incubated for 48 hrs by CCk-8 assay; type: functional, cell-based
[8] = tested on: HepG2; test: Antiproliferative activity against human HepG2 cells assessed as reduction in cell viability incubated for 48 hrs by CCk-8 assay; type: functional, cell-based; settings: HepG2, 48 h

With `C[C@H]1CCC/C=C/[C@@H]2C[C@H](O)C[C@H]2[C@H](OC(=O)CCC(=O)Oc2ccc(-c3cc(=S)ss3)cc2)/C=C/C(=O)O1` the IC50 [1] was 16100 nM, the IC50 [2] was 3620 nM and the IC50 [3] was 3190 nM. The IC50 [4] was 1350 nM, the IC50 at 48 h [5] was 8180 nM and the selectivity ratio [6] was 6.06. For the same molecule, the IC50 [7] was 2350 nM and the IC50 [8] was 7440 nM.

`C[C@H]1CCC/C=C/[C@@H]2C[C@H](O)C[C@H]2[C@H](OC(=O)CCCC(=O)OCCCCCCOc2ccc(-c3cc(=S)ss3)cc2)/C=C/C(=O)O1` gave an IC50 [1] of 1110 nM, an IC50 [2] of 530 nM and an IC50 [3] of 670 nM. It also gave an IC50 [4] of 510 nM, an IC50 at 48 h [5] of 3240 nM and a selectivity ratio [6] of 6.35. It also gave an IC50 [7] of 370 nM and an IC50 [8] of 1720 nM.

For `C[C@H]1CCC/C=C/[C@@H]2C[C@H](O)C[C@H]2[C@H](OC(=O)CCC(=O)OCCCCOc2ccc(-c3cc(=S)ss3)cc2)/C=C/C(=O)O1`, the IC50 [1] was 870 nM, the IC50 [2] was 830 nM and the IC50 [3] was 1460 nM. It also gave an IC50 [4] of 500 nM, an IC50 at 48 h [5] of 1640 nM and a selectivity ratio [6] of 3.28. It also gave an IC50 [7] of 860 nM and an IC50 [8] of 720 nM.

In the case of `C[C@H]1CCC/C=C/[C@@H]2C[C@H](O)C[C@H]2[C@H](O)/C=C/C(=O)O1` [BREFELDIN A], the IC50 [1] is reported as 160 nM, the IC50 [2] is reported as 39 nM and the IC50 [3] is reported as 56 nM. For the same molecule, the IC50 [4] was 54 nM, the IC50 at 48 h [5] was 94 nM and the selectivity ratio [6] was 1.74. The IC50 [7] was 44 nM and the IC50 [8] was 120 nM.
